{"source": "patent US20020143018A1", "about": "(priority 2000, published 2002)", "system": "Sarcocystis neurona strain SN3", "assay": "Microtiter Monolayer Disruption Assay (MMDA), inhibition of merozoite-induced cell destruction (CPE)", "format": "cell-based", "conditions": "S. neurona merozoites 50,000/well on BT cell monolayers, compound added 2 hours after infection, crystal violet readout, read-out: Percent Inhibition of Cell Destruction", "method": "In order to determine the scope of protection provided by praziquantel, in vitro testing was conducted. Sarcocystis neurona was evaluated for its sensitivity to this compound. Strain SN3 of Sarcocystis neurona was used.\nBovine turbinate (BT) cells were used for all in vitro tests. Cells were grown to confluency in 25 cm^2 flasks in RMPI 1640 media supplemented with 10% v/v fetal bovine serum (FBS), 100 Units of penicillin (g/mL), […] and 5×10^−2 mM of 2-mercaptoethanol. After cell confluence was obtained, cells were maintained in the same media with reduced FBS (2% v/v). Cell cultures were incubated at 37 C. in a humidified atmosphere containing 5% carbon dioxide and 95% air.\nFor growth of the parasite, BT cell monolayers were infected with parasites and examined with an inverted microscope for the development of lesions (cytopathic effect, “CPE”) or the presence of many extracellular merozoites. Once lesions were observed, or many extracellular parasites were present, the monolayer was scraped with the tip of a 5 mL pipette and 1 to 3 drops of the merozoite-containing fluid was transferred to two flasks of fresh BT cells. […]\nThis assay was used to determine if the parasites or compound were toxic for BT cells. […] Each well was visually monitored daily and the assay was stopped when 90-100% of the untreated merozoite infected cells had lysed (90-100% CPE). […]", "data": [{"smiles": "O=C(C1CCCCC1)N1CC(=O)N2CCc3ccccc3C2C1", "note": "(centres unmarked) [Praziquantel, praziquantel]", "values": [{"measurement": "inhibition at 10 µg/mL", "setting": "10 μg/mL", "result": 51, "unit": "%"}, {"measurement": "inhibition at 20 µg/mL", "setting": "20 μg/mL", "result": 69, "unit": "%"}]}]}
